Data as given in ChEMBL document CHEMBL3885881, “DrugMatrix”.

Species on record: Rattus norvegicus
Experiment: DrugMatrix - Regimen: Daily Repeat
Assay type: toxicity, organism-based, Sprague-Dawley
Set-up: regimen Daily Repeat, gender Male, age 6-8 weeks
Conditions: in vivo, po, route oral GAVAGE, vehicle 100 % SALINE; for TOTAL BILIRUBIN / URIC ACID / ALANINE AMINOTRANSFERASE / ALBUMIN / ALKALINE PHOSPHATASE / ASPARTATE AMINOTRANSFERASE / BLOOD UREA NITROGEN / CARBON DIOXIDE / CHLORIDE / CHOLESTEROL / CREATINE PHOSPHOKINASE / CREATININE / GLUCOSE / LIPASE / PHOSPHORUS / POTASSIUM / SODIUM / TOTAL PROTEIN: tissue Plasma; for ABSOLUTE BASOPHIL / ABSOLUTE EOSINOPHIL / ABSOLUTE LYMPHOCYTE / ABSOLUTE MONOCYTE / BASOPHIL / EOSINOPHIL / ERYTHROCYTE COUNT / HEMATOCRIT / HEMOGLOBIN / LEUKOCYTE COUNT / LYMPHOCYTE / MEAN CORPUSCULAR HEMOGLOBIN / MEAN CORPUSCULAR HEMOGLOBIN CONCENTRATION / MEAN CORPUSCULAR VOLUME / MONOCYTE / NEUTROPHIL / PLATELET COUNT: tissue Blood
[1] = 0 mg/kg, 120 h, dose level Control, time 5 day
[2] = 0 mg/kg, […], dose level Control, time 14 day
[3] = 2 mg/kg, 72 h, dose level High, time 3 day
[4] = 2 mg/kg, 120 h, dose level High, time 5 day
[5] = 2 mg/kg, […], dose level High, time 14 day

## COc1cccc2c1C(=O)c1c(O)c3c(c(O)c1C2=O)C[C@@](O)(C(C)=O)C[C@@H]3O[C@H]1C[C@H](N)[C@H](O)[C@H](C)O1 [DAUNORUBICIN]
[1]
  TOTAL BILIRUBIN: 0.37 mg/dL
  URIC ACID: 0.97 mg/dL
[2]
  ABSOLUTE BASOPHIL: 93.3 cells/µL
  ABSOLUTE EOSINOPHIL: 80 cells/µL
  ABSOLUTE LYMPHOCYTE: 6890 cells/µL
  ABSOLUTE MONOCYTE: 170 cells/µL
  BASOPHIL: 1%
  EOSINOPHIL: 0.83%
  ERYTHROCYTE COUNT: 7.03 x10E6/uL
  HEMATOCRIT: 43.4%
  HEMOGLOBIN: 14.83 G/DL
  LEUKOCYTE COUNT: 8.94 x10E3/uL
  LYMPHOCYTE: 77.93%
  MEAN CORPUSCULAR HEMOGLOBIN: 21.1 pg
  MEAN CORPUSCULAR HEMOGLOBIN CONCENTRATION: 34.17 G/DL
  MEAN CORPUSCULAR VOLUME: 61.77 fL
  MONOCYTE: 1.33%
  NEUTROPHIL: 18%
  PLATELET COUNT: 1097.33 x10E3/uL
  ALANINE AMINOTRANSFERASE: 32 u/L
  ALBUMIN: 3.83 G/DL
  ALKALINE PHOSPHATASE: 334.67 u/L
  ASPARTATE AMINOTRANSFERASE: 69.33 u/L
  BLOOD UREA NITROGEN: 16 mg/dL
  CARBON DIOXIDE: 40 mmol/L
  CHLORIDE: 105.67 MEQ/L
  CHOLESTEROL: 70.33 mg/dL
  CREATINE PHOSPHOKINASE: 144.67 u/L
  CREATININE: 0.3 mg/dL
  GLUCOSE: 177.67 mg/dL
  LIPASE: 16.33 u/L
  PHOSPHORUS: 10.83 mg/dL
  POTASSIUM: 5.77 MEQ/L
  SODIUM: 143.33 MEQ/L
  TOTAL BILIRUBIN: 0.33 mg/dL
  TOTAL PROTEIN: 6.37 G/DL
  URIC ACID: 0.17 mg/dL
[3]
  ABSOLUTE BASOPHIL: 110 cells/µL
  ABSOLUTE EOSINOPHIL: 210 cells/µL
  ABSOLUTE LYMPHOCYTE: 7080 cells/µL
  ABSOLUTE MONOCYTE: 140 cells/µL
  BASOPHIL: 1.17%
  EOSINOPHIL: 2.47%
  ERYTHROCYTE COUNT: 6.67 x10E6/uL
  HEMATOCRIT: 42.37%
  HEMOGLOBIN: 13.97 G/DL
  LEUKOCYTE COUNT: 8.7 x10E3/uL
  LYMPHOCYTE: 80.87%
  MEAN CORPUSCULAR HEMOGLOBIN: 20.97 pg
  MEAN CORPUSCULAR HEMOGLOBIN CONCENTRATION: 33 G/DL
  MEAN CORPUSCULAR VOLUME: 63.57 fL
  MONOCYTE: 1.7%
  NEUTROPHIL: 13.37%
  PLATELET COUNT: 1161.67 x10E3/uL
  ALANINE AMINOTRANSFERASE: 34 u/L
  ALBUMIN: 3.9 G/DL
  ALKALINE PHOSPHATASE: 354 u/L
  ASPARTATE AMINOTRANSFERASE: 68 u/L
  BLOOD UREA NITROGEN: 16.67 mg/dL
  CARBON DIOXIDE: 36 mmol/L
  CHLORIDE: 104 MEQ/L
  CHOLESTEROL: 67.67 mg/dL
  CREATINE PHOSPHOKINASE: 219 u/L
  CREATININE: 0.4 mg/dL
  GLUCOSE: 175 mg/dL
  LIPASE: 11 u/L
  PHOSPHORUS: 12.2 mg/dL
  POTASSIUM: 6.47 MEQ/L
  SODIUM: 142.67 MEQ/L
  TOTAL BILIRUBIN: 0.37 mg/dL
  TOTAL PROTEIN: 6.43 G/DL
  URIC ACID: 1.17 mg/dL
[4]
  ABSOLUTE BASOPHIL: 75 cells/µL
  ABSOLUTE EOSINOPHIL: 40 cells/µL
  ABSOLUTE LYMPHOCYTE: 7990 cells/µL
  ABSOLUTE MONOCYTE: 140 cells/µL
  BASOPHIL: 0.9%
  EOSINOPHIL: 0.5%
  ERYTHROCYTE COUNT: 6.82 x10E6/uL
  HEMATOCRIT: 42.9%
  HEMOGLOBIN: 13.75 G/DL
  LEUKOCYTE COUNT: 9.39 x10E3/uL
  LYMPHOCYTE: 84.25%
  MEAN CORPUSCULAR HEMOGLOBIN: 20.2 pg
  MEAN CORPUSCULAR HEMOGLOBIN CONCENTRATION: 32.15 G/DL
  MEAN CORPUSCULAR VOLUME: 62.9 fL
  MONOCYTE: 1.5%
  NEUTROPHIL: 12.5%
  PLATELET COUNT: 1293.5 x10E3/uL
  ALANINE AMINOTRANSFERASE: 27.67 u/L
  ALBUMIN: 3.93 G/DL
  ALKALINE PHOSPHATASE: 361.67 u/L
  ASPARTATE AMINOTRANSFERASE: 66 u/L
  BLOOD UREA NITROGEN: 14.67 mg/dL
  CARBON DIOXIDE: 35 mmol/L
  CHLORIDE: 106.67 MEQ/L
  CHOLESTEROL: 68.67 mg/dL
  CREATINE PHOSPHOKINASE: 274.67 u/L
  CREATININE: 0.4 mg/dL
  GLUCOSE: 192.33 mg/dL
  LIPASE: 9 u/L
  PHOSPHORUS: 11.87 mg/dL
  POTASSIUM: 6.67 MEQ/L
  SODIUM: 146 MEQ/L
  TOTAL BILIRUBIN: 0.37 mg/dL
  TOTAL PROTEIN: 6.33 G/DL
  URIC ACID: 1.37 mg/dL
[5]
  ABSOLUTE BASOPHIL: 120 cells/µL
  ABSOLUTE EOSINOPHIL: 74 cells/µL
  ABSOLUTE LYMPHOCYTE: 8830 cells/µL
  ABSOLUTE MONOCYTE: 250 cells/µL
  BASOPHIL: 1.1%
  EOSINOPHIL: 0.66%
  ERYTHROCYTE COUNT: 7.41 x10E6/uL
  HEMATOCRIT: 45.06%
  HEMOGLOBIN: 15.1 G/DL
  LEUKOCYTE COUNT: 11 x10E3/uL
  LYMPHOCYTE: 80.4%
  MEAN CORPUSCULAR HEMOGLOBIN: 20.36 pg
  MEAN CORPUSCULAR HEMOGLOBIN CONCENTRATION: 33.46 G/DL
  MEAN CORPUSCULAR VOLUME: 60.78 fL
  MONOCYTE: 2%
  NEUTROPHIL: 15.02%
  PLATELET COUNT: 1090.8 x10E3/uL
  ALANINE AMINOTRANSFERASE: 31.8 u/L
  ALBUMIN: 3.88 G/DL
  ALKALINE PHOSPHATASE: 326.6 u/L
  ASPARTATE AMINOTRANSFERASE: 64.8 u/L
  BLOOD UREA NITROGEN: 16.6 mg/dL
  CARBON DIOXIDE: 42.4 mmol/L
  CHLORIDE: 106 MEQ/L
  CHOLESTEROL: 66.4 mg/dL
  CREATINE PHOSPHOKINASE: 203 u/L
  CREATININE: 0.4 mg/dL
  GLUCOSE: 167.6 mg/dL
  LIPASE: 12.4 u/L
  PHOSPHORUS: 9.42 mg/dL
  POTASSIUM: 6.3 MEQ/L
  SODIUM: 144.4 MEQ/L
  TOTAL BILIRUBIN: 0.4 mg/dL
  TOTAL PROTEIN: 6.36 G/DL
  URIC ACID: 0.04 mg/dL
